For test [1], the target named is SHP-2 enzyme (Met1-Leu525) (Homo sapiens (Human), UniProt Q06124). Put plainly: SHP2 inhibition enzymatic assay. The format is biochemical. The note with it: 0.5 nM SHP-2 activated by 500 nM IRS1 peptide, 75 μM DiFMUP substrate; read-out: SHP2wt-IC50. The procedure:
The assay was performed as described in YP Chen et al, Nature (535)2016. Assay volume of 20 μL/well was assembled in 384 well black polystyrene low-binding microplates (Greiner), using the following buffer: 60 mM HEPES pH 7.2, 75 mM NaCl, 75 mM KCl, 1 mM EDTA pH 8, 0.05% tween-20, 5 mM DTT. The SHP-2 enzyme (synthetized by Origene, Met1-Leu525, cat #TP750155) was used at a final concentration of 0.5 nM. The enzyme was activated by 500 nM IRS1 peptide (sequence: H2N-LN(pY)IDLDLV(dPEG8)LST(pY)ASINFQK-amide SEQ ID No. 1) and incubated with 75 μM DiFMUP (Sigma) as substrate.
Briefly, DMSO serially diluted testing compounds were transferred to the bottom of the assay plate. SHP2 was then added together with the IRS1 peptide. 30 min post incubation, the DiFMUP substrate was added to the reaction and incubated 30 min at room temperature. Finally 5 μL of 160 μM bpV (Potassium bisperoxo[1,10-phenanthroline]oxovanadate [V], Sigma) were added to stop and quench the reaction. The fluorescence was detected by a microplate reader (Envision, PerkinElmer) according to the DiFMUP excitation and emission wavelength. The lower the fluorescence the higher the SHP2 inhibition. […] The percentage inhibition is fitted against the compound dilutions with a four-parameter logistic regression. The inflection point (i.e. the concentration at which half-maximal inhibition is achieved) is the IC50.

The subject of test [2] is ERK phosphorylation in KYSE-520 cells. Briefly: Phospho-ERK cellular assay. The test is classed as cell-based. The following applies: KYSE-520 cells, 2 h at 37° C., phospho-ERK1/2 (Thr202/Tyr204) TR-FRET, read-out: PERK IC50. The procedure:
ERK phosphorylation was detected using the “Advanced phospho-ERK1/2 (Thr202/Tyr204)” TR-FRET kit (Cisbio, Cat #64AERPEG/H), following the manufacturer reagents and instructions.
Briefly, 20.000/well KYSE-520 cells (DSMZ ACC 371) were plated in 6 μL RPMI-1640 (Invitrogen) growth medium, into 384 white low-volume high base TC microplates (Greiner). After an overnight incubation, cells were treated with DMSO serial diluted compounds and incubated for 2 h at 37° C. After incubation, 2 μL/well of 4×Lysis Buffer (Cisbio 64KL1FDF), were added and incubated with cells for 30 min on gentle shaking. Finally, lysates were added with 2 μL/well of Eu cryptate (donor) and D2 (acceptor) conjugated antibodies (as provided by the Cisbio kit #64AERPEG/H) diluted 1:100 in Detection Buffer (as provided by the Cisbio kit #64AERPEG/H). Plates were then sealed and incubated at room temperature in the dark. After an overnight incubation, the TR-FRET signal was detected on a suitable reader (Envision, PerkinElmer). The lower the TR-FRET signal the higher the higher the SHP2 inhibition in cells.
The activity of each compound dilution was calculated as percentage between vehicle DMSO treated cells and no cells, 0% inhibition and 100% inhibition respectively. The percentage activity is fitted against the compound dilutions with a four-parameter logistic regression. The inflection point (i.e. the concentration at which half-maximal inhibition is achieved) is the IC50.

Where two headings read alike, the source gives them in different places.

Chain of SHP-2 enzyme (Met1-Leu525) (Q06124 1-525): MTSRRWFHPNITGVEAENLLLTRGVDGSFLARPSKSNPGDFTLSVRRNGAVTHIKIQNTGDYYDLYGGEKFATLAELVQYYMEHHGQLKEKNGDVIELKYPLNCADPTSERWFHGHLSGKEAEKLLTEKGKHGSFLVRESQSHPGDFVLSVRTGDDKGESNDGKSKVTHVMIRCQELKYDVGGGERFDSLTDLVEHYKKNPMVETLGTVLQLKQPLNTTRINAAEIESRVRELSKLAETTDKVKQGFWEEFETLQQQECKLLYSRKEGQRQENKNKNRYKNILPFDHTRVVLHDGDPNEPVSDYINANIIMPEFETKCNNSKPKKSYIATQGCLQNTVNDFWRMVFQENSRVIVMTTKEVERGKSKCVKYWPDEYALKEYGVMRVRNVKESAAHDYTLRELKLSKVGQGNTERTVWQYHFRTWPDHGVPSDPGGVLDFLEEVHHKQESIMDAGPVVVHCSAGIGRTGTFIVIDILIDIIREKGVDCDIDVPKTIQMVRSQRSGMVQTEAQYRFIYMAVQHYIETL

Take `Cc1csc(C2(CN)C3CCN(c4cnc5c(-c6cccc(Cl)c6Cl)n[nH]c5n4)CC32)n1` (centres unmarked) [Example 77, (3-(3-(2,3-dichlorophenyl)-1H-pyrazolo[3,4-b]pyrazin-6-yl)-7-(4-methylthiazol-2-yl)-3-azabicyclo[4.1.0]heptan-7-yl)methanamine]: the IC50 – broadly, the concentration that inhibits the measured activity by half – in test [1] is < 500 nM; in test [2] (Homo sapiens, KYSE-520, 2 h) it was < 1000 nM.
As for `CNC(=O)c1ccc(-c2n[nH]c3nc(N4CC[C@@H]5[C@H](C4)[C@@]5(CN)c4ccccc4F)cnc23)c(Cl)c1` [Example 273, 4-(6-((1S,6R,7R)-7-(aminomethyl)-7-(2-fluorophenyl)-3-azabicyclo[4.1.0]heptan-3-yl)-1H-pyrazolo[3,4-b]pyrazin-3-yl)-3-chloro-N-methylbenzamide], the IC50 is < 500 nM in test [1] and < 1000 nM in test [2] (Homo sapiens, KYSE-520, 2 h).
As to `Cn1c(-c2n[nH]c3nc(N4CC[C@@H]5[C@H](C4)[C@@]5(CN)c4ccccc4F)cnc23)ccc(Cl)c1=O` [Example 278, 6-(6-((1S,6R,7R)-7-(aminomethyl)-7-(2-fluorophenyl)-3-azabicyclo[4.1.0]heptan-3-yl)-1H-pyrazolo[3,4-b]pyrazin-3-yl)-3-chloro-1-methylpyridin-2(1H)-one], the IC50 in test [1] was < 500 nM; in test [2] (Homo sapiens, KYSE-520, 2 h), < 1000 nM.
As to `Cc1csc([C@@]2(CN)[C@@H]3CN(c4cnc5c(-c6ccn7nccc7c6Cl)n[nH]c5n4)C[C@@H]32)n1` [Example 458], the IC50 was < 500 nM in test [1] and < 1000 nM in test [2].
Regarding `NC[C@]1(c2ccccc2F)[C@@H]2CCN(c3cnc4c(-c5ccc6[nH]c(=O)[nH]c6c5)n[nH]c4n3)C[C@@H]21` [Example 239, 5-(6-((1S,6R,7R)-7-(aminomethyl)-7-(2-fluorophenyl)-3-azabicyclo[4.1.0]heptan-3-yl)-1H-pyrazolo[3,4-b]pyrazin-3-yl)-1,3-dihydro-2H-benzo[d]imidazol-2-one], the IC50 in test [1] is < 500 nM; in test [2] (Homo sapiens, KYSE-520, 2 h) it was < 1000 nM.
For `COc1cc(-c2n[nH]c3nc(N4CC[C@@H]5[C@H](C4)[C@@]5(CN)c4ccccc4F)cnc23)cc2[nH]c(=O)[nH]c12` [Example 292, 6-(6-((1S,6R,7R)-7-(aminomethyl)-7-(2-fluorophenyl)-3-azabicyclo[4.1.0]heptan-3-yl)-1H-pyrazolo[3,4-b]pyrazin-3-yl)-4-methoxy-1,3-dihydro-2H-benzo[d]imidazol-2-one], the IC50 is < 500 nM in test [1] and > 5000 nM in test [2] (Homo sapiens, KYSE-520, 2 h).
`NC[C@]1(c2ccccc2F)[C@@H]2CCN(c3cnc(Sc4ccc(C(N)=O)c5ncccc45)c(N)n3)C[C@@H]21` [Example 525, 5-((3-amino-5-((1S,6R,7R)-7-(aminomethyl)-7-(2-fluorophenyl)-3-azabicyclo[4.1.0]heptan-3-yl)pyrazin-2-yl)thio)quinoline-8-carboxamide]: the IC50 in test [1] was < 500 nM; in test [2] (Homo sapiens, KYSE-520, 2 h), > 5000 nM.
Take `Cn1c(N2CC[C@@H]3[C@H](C2)[C@@]3(CN)c2ccccc2F)nc2[nH]cc(-c3ccc4c(=O)[nH]ccc4c3F)c2c1=O` [Example 380, 6-(2-((1S,6R,7R)-7-(aminomethyl)-7-(2-fluorophenyl)-3-azabicyclo[4.1.0]heptan-3-yl)-3-methyl-4-oxo-4,7-dihydro-3H-pyrrolo[2,3-d]pyrimidin-5-yl)-5-fluoroisoquinolin-1(2H)-one]: the IC50 in test [1] is < 500 nM; in test [2] (Homo sapiens, KYSE-520, 2 h), < 1000 nM.
Consider `NC[C@]1(c2ccccc2F)[C@@H]2CCN(c3cnc4c(-c5ccnc6c5CCO6)n[nH]c4n3)C[C@@H]21` [Example 154, ((1S,6R,7R)-3-(3-(2,3-dihydrofuro[2,3-b]pyridin-4-yl)-1H-pyrazolo[3,4-b]pyrazin-6-yl)-7-(2-fluorophenyl)-3-azabicyclo[4.1.0]heptan-7-yl)methanamine], for which the IC50 in test [1] was < 500 nM; in test [2] (Homo sapiens, KYSE-520, 2 h), < 1000 nM.
For `Cc1c(-c2n[nH]c3nc(N4CC[C@@H]5[C@H](C4)[C@@]5(CN)c4ccccc4F)cnc23)ccc2c1nnn2C` [Example 204, ((1S,6R,7R)-3-(3-(1,4-dimethyl-1H-benzo[d][1,2,3]triazol-5-yl)-1H-pyrazolo[3,4-b]pyrazin-6-yl)-7-(2-fluorophenyl)-3-azabicyclo[4.1.0]heptan-7-yl)methanamine], in that order: < 500 nM and < 1000 nM.
In the case of `Cc1nccc(-c2ccc3nc(N4CC[C@@H]5[C@H](C4)[C@@]5(CN)c4ccccc4F)cnc3n2)c1F` [Example 529], the IC50 in test [1] was < 500 nM; in test [2] (Homo sapiens, KYSE-520, 2 h) it was < 1000 nM.
Turning to `Cn1cc2c(Cl)c(Sc3ccc4nc(N5CC[C@@H]6[C@H](C5)[C@@]6(CN)c5ccccc5F)cnc4n3)ccc2n1` [Example 400, ((1S,6R,7R)-3-(6-((4-chloro-2-methyl-2H-indazol-5-yl)thio)pyrido[2,3-b]pyrazin-2-yl)-7-(2-fluorophenyl)-3-azabicyclo[4.1.0]heptan-7-yl)methanamine], the IC50 in test [1] is < 500 nM; in test [2] (Homo sapiens, KYSE-520, 2 h), < 1000 nM.
Take `Cc1csc([C@@]2(CN)[C@@H]3CN(c4cnc5c(-c6ccc7nccnc7c6Cl)n[nH]c5n4)C[C@@H]32)n1` [Example 460]: the IC50 in test [1] was < 500 nM; in test [2], < 1000 nM.
For the compound `Cc1cc([C@@]2(CN)[C@@H]3CCN(c4cnc5c(-c6ccnc7cc(F)ccc67)n[nH]c5n4)C[C@@H]32)no1` [Example 45, ((1S,6R,7S)-3-(3-(7-fluoroquinolin-4-yl)-1H-pyrazolo[3,4-b]pyrazin-6-yl)-7-(5-methylisoxazol-3-yl)-3-azabicyclo[4.1.0]heptan-7-yl)methanamine], the IC50 is < 500 nM in test [1] and < 1000 nM in test [2] (Homo sapiens, KYSE-520, 2 h).
For `COc1cc(-c2n[nH]c3nc(N4CC[C@@H]5[C@H](C4)[C@@]5(CN)c4ccccc4F)cnc23)c2ccnn2c1` [Example 147, ((1S,6R,7R)-7-(2-fluorophenyl)-3-(3-(6-methoxypyrazolo[1,5-a]pyridin-4-yl)-1H-pyrazolo[3,4-b]pyrazin-6-yl)-3-azabicyclo[4.1.0]heptan-7-yl)methanamine], the IC50 in test [1] was < 500 nM; in test [2] (Homo sapiens, KYSE-520, 2 h) it was < 1000 nM.
Take `NC[C@]1(c2ccccc2F)[C@@H]2CCN(c3cnc4c(ccn4-c4ccnc5ccccc45)n3)C[C@@H]21` [Example 382, ((1S,6R,7R)-7-(2-fluorophenyl)-3-(5-(quinolin-4-yl)-5H-pyrrolo[2,3-b]pyrazin-2-yl)-3-azabicyclo[4.1.0]heptan-7-yl)methanamine]: the IC50 in test [1] is < 500 nM; in test [2] (Homo sapiens, KYSE-520, 2 h) it was > 5000 nM.
As for `COc1ccc(-c2n[nH]c3nc(N4CC[C@@H]5[C@H](C4)[C@@]5(CN)c4ccccc4F)cnc23)c2ccc(C)nc12` [Example 201, ((1S,6R,7R)-7-(2-fluorophenyl)-3-(3-(8-methoxy-2-methylquinolin-5-yl)-1H-pyrazolo[3,4-b]pyrazin-6-yl)-3-azabicyclo[4.1.0]heptan-7-yl)methanamine], the IC50 is < 500 nM in test [1] and < 1000 nM in test [2] (Homo sapiens, KYSE-520, 2 h).
For `Cc1c(-c2n[nH]c3nc(N4CC[C@@H]5[C@H](C4)[C@@]5(CN)c4cccc(F)c4F)cnc23)ccc2nn(C)cc12` [Example 177, ((1S,6R,7R)-7-(2,3-difluorophenyl)-3-(3-(2,4-dimethyl-2H-indazol-5-yl)-1H-pyrazolo[3,4-b]pyrazin-6-yl)-3-azabicyclo[4.1.0]heptan-7-yl)methanamine], the IC50 is < 500 nM in test [1] and < 1000 nM in test [2] (Homo sapiens, KYSE-520, 2 h).
As for `Cn1c(N2CC[C@@H]3[C@H](C2)[C@@]3(CN)c2ccccc2F)nc2[nH]nc(-c3ccc(C(N)=O)c4ncccc34)c2c1=O` [Example 343, 5-(6-((1S,6R,7R)-7-(aminomethyl)-7-(2-fluorophenyl)-3-azabicyclo[4.1.0]heptan-3-yl)-5-methyl-4-oxo-4,5-dihydro-1H-pyrazolo[3,4-d]pyrimidin-3-yl)quinoline-8-carboxamide], the IC50 in test [1] is < 500 nM; in test [2] (Homo sapiens, KYSE-520, 2 h), > 5000 nM.

(Values after US20240109900A1, “AZABICYCLIC SHP2 INHIBITORS” (IRBM S.P.A., priority 2021, published 2024).)
